# US9440983B2, “Pyrrolo[3,2-d]pyrimidine-2,4(3H,5H)-dione derivatives” (Hydra Biosciences, Inc., priority 2014, dated 2016)
# Legend:
# [1] = biological target: T1, TRPC5 channel (Homo sapiens, UniProt Q9UL62); experiment: High throughput screening assay: Fluo4 cell-based fluorescence detection of intracellular Ca2+ rise; conditions: HEK293/TREx cells inducibly expressing TRPC5, high-Ca2+ Ringer (14 mM Ca2+), 7 concentrations in triplicate
# T1 construct: expressed in transfected cells; host or cells: HEK293/TREx (Invitrogen), stably transfected, tetracycline-induced
# T1 sequence (Q9UL62 1-973): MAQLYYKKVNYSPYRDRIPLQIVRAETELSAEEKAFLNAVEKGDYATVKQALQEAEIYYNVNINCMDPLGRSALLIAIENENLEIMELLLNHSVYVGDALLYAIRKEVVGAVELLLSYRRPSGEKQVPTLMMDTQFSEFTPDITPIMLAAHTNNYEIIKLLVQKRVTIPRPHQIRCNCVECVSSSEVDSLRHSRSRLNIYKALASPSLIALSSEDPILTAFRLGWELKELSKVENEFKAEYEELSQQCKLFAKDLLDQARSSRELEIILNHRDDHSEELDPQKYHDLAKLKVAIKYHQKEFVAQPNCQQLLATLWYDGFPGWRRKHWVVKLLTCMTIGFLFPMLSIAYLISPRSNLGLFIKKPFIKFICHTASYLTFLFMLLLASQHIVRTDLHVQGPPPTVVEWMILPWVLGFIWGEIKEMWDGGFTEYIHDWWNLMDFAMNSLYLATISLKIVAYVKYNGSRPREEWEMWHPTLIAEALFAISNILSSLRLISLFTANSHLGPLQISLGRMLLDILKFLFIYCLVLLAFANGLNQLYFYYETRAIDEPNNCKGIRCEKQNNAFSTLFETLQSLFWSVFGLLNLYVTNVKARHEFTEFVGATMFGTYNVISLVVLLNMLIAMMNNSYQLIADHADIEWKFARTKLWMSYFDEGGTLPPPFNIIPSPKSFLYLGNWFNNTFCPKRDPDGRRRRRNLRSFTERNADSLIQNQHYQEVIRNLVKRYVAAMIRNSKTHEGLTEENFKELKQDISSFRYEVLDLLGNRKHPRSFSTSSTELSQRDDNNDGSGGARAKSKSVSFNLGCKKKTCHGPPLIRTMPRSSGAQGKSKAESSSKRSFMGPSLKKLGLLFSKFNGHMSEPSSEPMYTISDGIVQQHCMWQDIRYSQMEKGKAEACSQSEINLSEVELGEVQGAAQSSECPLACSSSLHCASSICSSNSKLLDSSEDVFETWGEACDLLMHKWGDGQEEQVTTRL
# Description: The assay depended on detection of the rise in intracellular Ca2+ concentration ([Ca2+]i) following channel activation in cells inducibly expressing the TRPC5 channel. Ca2+ rise was quantified with the use of fluorescent Ca2+ indicators that were loaded into cells and thereafter indicated the [Ca2+]i Ca2+ influx followed activation of the TRPC5 channel. Compounds inhibiting the [Ca2+]i rise were considered hits for further investigation.
# The commercially available HEK293/TREx line (Invitrogen) was stably transfected with a TRPC5 construct and screened by conventional calcium imaging to find clones with TRPC5 expression following stimulation with 1 μg/ml tetracycline. These cells were maintained in the growth medium recommended by the manufacturer supplemented with 100 μg/ml hygromycin to promote retention of the TRPC5 construct. After growing to near confluency, cells were plated at a density of ˜35,000 cells/well in 384 well CellBind plates (Corning) in the presence of 1 μg/ml tetracycline, and allowed to grow for 20-30 hrs. A nearly confluent monolayer resulted. Cells were then loaded with Ca2+ dye: Fura-2/AM or Fluo4/AM was added to the wells to a final concentration of 4 μM or 0.5 μM, respectively, and incubated for 80 min or 60 min, respectively, at room temperature. Supernatant was then removed from the cells by inverting plates with a sharp flick, and 25 μl Hank's Balanced Salt Solution (HBSS; 0.185 g/l D-glucose, 0.9767 g/l MgS04 (anhydrous), 0.4 g/l KCl, 0.06 g/l KH2PO4 (anhydrous), 0.35 g/l NaHCO3, 8.0 g/l NaCl, and 0.04788 g/l Na2HPO4 (anhydrous); pH 7.4) was then added to each well. Following ˜0.5 hour for recovery from loading, cells were assayed using the Hamamatsu FDSS 6000 system, which permitted illumination alternately at 340 nm and 380 nm for Fura-2 experiments, or at 485 nm for Fluo4 experiments. Frames were acquired at a rate of 0.2 Hz. During the assay, the plates were continuously vortexed, with pipette mixing of wells following addition of each reagent. For the screening assay, 26 μl of a diluted compound stock (at 50 μM) was added to each well for 2 minutes following the collection of a short (4 frame) baseline. 13 μl 62 mM high-Ca2+ Ringer solution (4.17 ml of normal ringer (with 2 mM Ca2+) plus 5.83 ml of isotonic calcium ringer (105 mM Ca2+; in this ringer all sodium has been replaced with calcium)) was then added to each well, achieving a final concentration of 14 mM Ca2+ and 10 μM test compound. Data was collected for ˜3 minutes following addition of high Ca2+Ringer, where the fluorescent intensity (for Fluo4) and the F340/F380 ratio (for Fura-2) were proportional to the [Ca2+]i Negative controls consisted of HEK293/TREx TRPC5 cells exposed to high Ca2+ solution, but no compound. Positive control conditions consisted of addition of 2-APB, a promiscuous blocker of TRPC5 and other channels, to columns 23 and 24 of the plates, to a final concentration of 200 μM. These controls defined a screening window, and “hits” were defined as those compounds inhibiting the fluorescence response by at least 40%. IC50 values were determined for compounds defined as “hits.” The Fluo4 cell-based fluorescence assay was used to determine the intracellular Ca2+ concentration in the presence of varying drug concentration. Final concentrations of compounds tested were 20 μM, 6.667 μM, 2.222 μM, 0.741 μM, 0.247 μM, 0.082 μM, and 0.027 μM. Compounds were tested in triplicate at all concentrations. Standard software was used to fit IC50 curves.
# Additionally or alternatively, efficacy can be represented as % inhibition in the presence (of a given concentration of compound) versus the absence of compound or in comparison to a control compound. For example, efficacy can be represented as % inhibition of ion flux in the presence versus the absence of compound.
# [2] = biological target: T1, TRPC5 channel; experiment: Whole-cell patch clamp experiments, TRPC5 current; format: cell-based; conditions: whole-cell patch clamp in TRPC5-expressing HEK293 TREx cells; current activated by LaCl3; IC50 estimated
# Description: Patch clamp experiments permit the detection of currents through the TRPC5 channel in the cell line described above. In normal whole-cell patch clamp recordings, a glass electrode is brought into contact with a single cell and a high-resistance (gigaohm) seal is established with the cell membrane. The membrane is then ruptured to achieve the whole-cell configuration, permitting control of the voltage of the cell membrane and measurement of currents flowing across the membrane using the amplifier attached to the electrode and resulting in the replacement of cytoplasm with the pipette solution. A perfusion system permits control of the extracellular solution, including the addition of blockers and activators of the current. The current can be activated by including 1.4 μM free Ca^2+ in the pipette (intracellular) solution, and 80 μM LaCl3 in the extracellular solution. TRPC5 cells were induced 20-48 hours, removed from growth plates, and replated at low density (to attain good single-cell physical separation) on glass coverslips for measurement. In some cases, cells were grown in low density overnight on glass coverslips. […] Currents elicited were quantified at −80 mV and +80 mV. The internal solution consisted of 140 mM cesium aspartate, 10 mM HEDTA, 2 mM CaCl2, 2.27 mM MgCl2 and 10 mM HEPES, pH 7.2, with 1,400 nM calculated free Ca^2+. […]
SMILES,IC50 [1] [µM],IC50 [2] [µM]
"Cn1c(-c2cccc(OC(F)(F)F)c2)cc2c1c(=O)n(CCCO)c(=O)n2C [Compound 32, 3-(3-hydroxypropyl)-1,5-dimethyl-6-(3-(trifluoromethoxy)phenyl)-1H-pyrrolo[3,2-d]pyrimidine-2,4(3H,5H)-dione]",2.94,
"Cc1cn(Cc2ccc(Cl)cc2)c2c(=O)n(CCCO)c(=O)n(C)c12 [Compound 34, 5-(4-chlorobenzyl)-3-(3-hydroxypropyl)-1,7-dimethyl-1H-pyrrolo[3,2-d]pyrimidine-2,4(3H,5H)-dione]",3.08,
"Cc1c(-c2cccc(OC(F)(F)F)c2)[nH]c2c(=O)n(CCCO)c(=O)n(C)c12 [Compound 36, 3-(3-hydroxypropyl)-1,7-dimethyl-6-(3-(trifluoromethoxy)phenyl)-1H-pyrrolo[3,2-d]pyrimidine-2,4(3H,5H)-dione]",7.54,

# These reach a lower IC50 [1]. Values come first.
IC50 [1] [µM],IC50 [2] [µM],SMILES
0.832,,"Cc1c(-c2cccc(OC(F)(F)F)c2)n(C)c2c(=O)n(CCCO)c(=O)n(C)c12 [Compound 33, 3-(3-hydroxypropyl)-1,5,7-trimethyl-6-(3-(trifluoromethoxy)phenyl)-1H-pyrrolo[3,2-d]pyrimidine-2,4(3H,5H)-dione]"
0.78,,"Cn1c(=O)n(CCCO)c(=O)c2c1cc(-c1cccc(OC(F)(F)F)c1)n2Cc1ccc(Cl)cc1 [Compound 35, 5-(4-chlorobenzyl)-3-(3-hydroxypropyl)-1-methyl-6-(3-(trifluoromethoxy)phenyl)-1H-pyrrolo[3,2-d]pyrimidine-2,4(3H,5H)-dione]"
0.503,0.00114,"Cn1c(=O)n(CCCO)c(=O)c2c1cc(-c1cccc(Cl)c1)n2Cc1ccc(Cl)cc1 [Compound 30, 5-(4-chlorobenzyl)-6-(3-chlorophenyl)-3-(3-hydroxypropyl)-1-methyl-1H-pyrrolo[3,2-d]pyrimidine-2,4(3H,5H)-dione]"
0.421,,"Cc1c(-c2cccc(OC(F)(F)F)c2)n(Cc2ccc(Cl)cc2)c2c(=O)n(CCCO)c(=O)n(C)c12 [Compound 29, 5-(4-chlorobenzyl)-3-(3-hydroxypropyl)-1,7-dimethyl-6-(3-(trifluoromethoxy)phenyl)-1H-pyrrolo[3,2-d]pyrimidine-2,4(3H,5H)-dione]"
0.408,< 0.001,"Cn1c(=O)n(CCCO)c(=O)c2c1c(-c1cccc(Cl)c1)cn2Cc1ccc(Cl)cc1 [Compound 37, 5-(4-chlorobenzyl)-7-(3-chlorophenyl)-3-(3-hydroxypropyl)-1-methyl-1H-pyrrolo[3,2-d]pyrimidine-2,4(3H,5H)-dione]"
